Values after ≈ are worked out from the molar mass of the structure shown.
Assays:
[1] = tested on: predendritic cells (DC-6); experiment: dendritic cell differentiation test: FITC-Dextran take-up; format: cell-based, human
Protocol: (§1) The ability of products of the invention to induce maturation of predendritic cells into dendritic cells was assessed. The following parameters were measured: FITC-Dextran conjugate take-up and expression of CD83, CD86 surface markers.
(§2) Mononucleated cells of peripheral blood are isolated from buffy coats of healthy donors. Purified monocytes by adherence selection are resuspended in RPMI-1640 medium containing 10% of foetal calf serum (FCS), GM-CSF and IL-4 (10 ng/ml) at a density of 1×10^6 cells/ml. Cells are divided into Petri Dishes (10×10^6 cells per dish) and cultured for 6 days with a change to fresh medium after 3 days. Cells thus obtained are called predendritic cells (DC-6). Maturation of predendritic cells into mature dendritic cells is achieved by incubating cells with diluted solutions of the products or LPS (positive control) for 3 more days (see product section below). At day 9 (DC-9), cells are harvested and analyzed for different indicators of dendritic cell maturation: assessment of CD83, CD86 surface marker expression as well as of their ability to take up FITC-Dextran conjugate. All these parameters are analyzed by an EPICS-XL-MCL model FACS (Coulter Immunology, Hialeah, […]).
(§3) Expression of surface markers is given as % of mean fluorescence of LPS-activated cells (positive control); FITC-Dextran conjugate take-up rate is calculated based on take-up of cells maintained in basic medium and is expressed in %.
(§4) Solutions are incubated at 37° C. for 20 minutes, subjected to vigorous stirring during 3 minutes and then diluted to 100 μg/ml in RPMI-1640 culture medium and used in diluted state at concentrations ranging from 10 μg/ml to 0.03 μg/ml. Reference Product: E. coli lipopolysaccharide (LPS, DIFCO, Detroit, Mich., U.S.A.), as a 5 mg/ml stock solution in PBS. An intermediate 100 μg/ml solution is prepared in RPMI 1640 culture medium. Concentrations of dilute solutions being tested range from 1 μg/ml to 0.03 μg/ml.
(§5) In another series of experiments, all acyl dipeptide-like compounds were freeze-dried and directly redissolved into pyrogen-free water. Different products as well as LPS control are tested at a concentration of 10 μg/ml. Results are given as % of dendritic cells and mean fluorescence value for dextran phagocytosis or CD86 surface marker expression.
Immature dendritic cells (DC-6) resulting from monocyte differentiation, through the joint action of GM-CSF and IL-4, are able to incorporate FITC-Dextran conjugate. During the maturation process, cells lose their ability to incorporate the FITC-Dextran conjugate. Assays are conducted upon reaching the DC-9 differentiation stage.

murine macrophage cells = experiment: nitric oxide production by murine macrophage cells (Griess); format: cell-based, C57/BL6 mice
Method in brief: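 Bone-marrow macrophages from male C57/BL6 mice, differentiated 8 days with L929 supernatant, exposed to serially diluted compound for 22 h at 37 °C. Nitrite in supernatant measured by Griess reaction (562 nm vs 690 nm) against a standard curve. EC50 is concentration giving 50% of maximum amplitude, by line-segment interpolation.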

[2] = tested on: CD83, CD86 surface markers of predendritic cells (DC-6); experiment: dendritic cell differentiation test: CD83, CD86 surface marker expression; format: cell-based, human; details: FIGS. 75 & 76
Protocol: as §1, §2, §3, §4, §5

CCCCCCCCCCCC(=O)O[C@H](CCCCCCCCCCC)CC(=O)N[C@H](CC(=O)O)C(=O)NCCC[C@H](CO)NC(=O)C[C@H](O)CCCCCCCCCCC [OM-197-MC, N—[(R)-3-dodecanoyloxytetradecanoyl]-D-aspartic acid, α-N-{(4R)-5-hydroxy-4[(R)-3-hydroxytetradecanoylamino]-pentyl}amide]
decrease of phagocytic capacity ([1]; 10 μg/ml): 22% | effect on phagocytosis ([1]; concentrations lower than 3 μg/ml): no effect on phagocytosis | concentration inducing differentiation of DC-6 cells into DC-9 cells ([1]; summary of phagocytosis and marker data): greater than 1 μg/ml | Max concentration (murine macrophage cells; concentration at maximum amplitude): 51 µg/mL | EC50 conc (murine macrophage cells; concentration corresponding to 50% of maximum amplitude): 1.23 µg/mL (≈ 1.42 µM) | Min concentration (murine macrophage cells; lowest concentration inducing a significant response): 0.15 µg/mL | concentration inducing an increase in expression of CD83 and CD86 surface markers [2]: at least 1 μg/ml

— patent US8173133B2, “Acyl pseudodipeptides which carry a functionalized auxiliary arm” (OM Pharma, priority 1999, dated 2012)
